Laboratory results as given in patent US20100063008A1, “GELATINOUS ELASTOMER COMPOSITIONS” (Silipos, Inc., priority 2008, published 2010).

Columns and labels:
[1] = Exudation of active agents from gel specimens to filter paper discs, quantified by UV, MS, GC and/or HPLC after extraction; type: physicochemical; settings: for Active Agent Transferred from Gel to Filters: 37° C., 0.40 psi; for Total Active Agent Exuded from Gel: cumulative
Procedure: Sample filter paper discs were placed in contact with gel specimens of same diameter under constant low pressure (0.40 psi. (2.8 Mpa)) at 37° C. Multiple time-controlled exposures of the filter paper to the gel were preformed in succession to same side of gel. Quantification of active agent transferred to the filter paper discs was determined by UV, MS, GC and or HPLC analysis after extraction of active agent from the filter paper. Exudation rates was expressed as μg/unit time per unit surface area.
This compound was then divided into three aliquots' of approximately 10 grams each and poured into a 2.625″ diameter aluminum petri dish and allowed to cool to create individual gel samle discs. Subsequently, absorbent cellulose filter blotter paper was die cut to enough 2.625″ diameter discs to be employed as a wicking media for repeated exposure in direct contact with the gel compound under specific conditions as follows.
(§1) Exposure Conditions: 37-40 deg. C., Sample filter paper discs in contact with gel specimens of same diameter were stacked in […]. aluminum petri dishes, gel specimen diameter 2.625″×0.125″ thick, filter paper disc diameter 2.625″ with another petri dish and a 1 kg dead weight on top of stack. Pressure calculated at ˜0.407 psi. (2.8 Mpa) constant. Two replicates per test condition. Repeat exposures at 3 hours then repeat three exposures of 18 hours each, changing discs but keeping same gel specimen and same side of each gel specimen in contact with each successive filter paper disc sample.
The filter paper disc specimens aa through kk were then sent to an analytical laboratory for HPLC and GC analysis along with a small sample of each individual raw ingredient so that the HPLC and GC equipment could be calibrated for the protocol being employed by the lab. This calibration allowed for determining the maximum recoverable (measurable) amount of each ingredient that could be measured using these techniques and would later be used to correct the data. The analytical laboratory then detected and measured the amount of each of the added active agents that was flushed out of the filter paper discs using wet chemistry techniques known to those skilled in the art.
The analytical data was interpreted, and the amounts of each ingredient which was exuded into each filter paper blotter disc specimen, and subsequently extracted using wet chemistry, were then entered into a data analysis spreadsheet and adjusted based on the Analytical Recovery Rate to determine actual concentration of each ingredient extracted.

[2] = Total weight of exudate (oil) absorbed by filter paper blotter discs and theoretical amount of each ingredient exuded; type: physicochemical
Procedure: as §1
Data was calculated to determine the total weight of exudate absorbed by each individual sample filter paper blotter disc test specimen. Calculations were then performed based upon the ratios of ingredients in the gel disc formula to determine the theoretical amount of each ingredient that could have been exuded from the oil if the oil contained the same ratio of ingredients as contained in the control oil sample and in the gel.

[3] = Gel Specimen Number 1, 1 h filter exposure, time 0-1 h
[4] = Gel Specimen Number 1, 3 h filter exposure, time 1-4 h
[5] = Gel Specimen Number 1, 18 h filter exposure, time 4-22 h
[6] = Gel Specimen Number 1, 18 h filter exposure, time 22-40 h
[7] = Gel Specimen Number 1, 18 h filter exposure, time 40-58 h
[8] = Gel Specimen Number 1, Time 1 h
[9] = Gel Specimen Number 1, Time 4 h
[10] = Gel Specimen Number 1, Time 22 h
[11] = Gel Specimen Number 1, Time 40 h
[12] = Gel Specimen Number 1, Time 58 h
[13] = Gel Specimen Number 2, 1 h filter exposure, time 0-1 h
[14] = Gel Specimen Number 2, 3 h filter exposure, time 1-4 h
[15] = Gel Specimen Number 2, 18 h filter exposure, time 4-22 h
[16] = Gel Specimen Number 2, 18 h filter exposure, time 22-40 h
[17] = Gel Specimen Number 2, 18 h filter exposure, time 40-58 h
[18] = Gel Specimen Number 2, Time 1 h
[19] = Gel Specimen Number 2, Time 4 h
[20] = Gel Specimen Number 2, Time 22 h
[21] = Gel Specimen Number 2, Time 40 h
[22] = Gel Specimen Number 2, Time 58 h
[23] = Specimen aa, Hours 1, Cummulative Hours 1
[24] = Specimen bb, Hours 1, Cummulative Hours 1
[25] = Specimen cc, Hours 3, Cummulative Hours 4
[26] = Specimen dd, Hours 3, Cummulative Hours 4
[27] = Specimen ee, Hours 18, Cummulative Hours 22
[28] = Specimen ff, Hours 18, Cummulative Hours 22
[29] = Specimen gg, Hours 18, Cummulative Hours 40
[30] = Specimen hh, Hours 18, Cummulative Hours 40
[31] = Specimen ii, Hours 18, Cummulative Hours 58
[32] = Specimen kk, Hours 18, Cummulative Hours 58
[33] = Sample aa, Test Disc 1, Exposed 1 hours
[34] = Sample bb, Test Disc 1 Replicate, Exposed 1 hours
[35] = Sample cc, Test Disc 2, Exposed 3 hours
[36] = Sample dd, Test Disc 2 Replicate, Exposed 3 hours
[37] = Sample ee, Test Disc 3, Exposed 18 hours
[38] = Sample ff, Test Disc 3 Replicate, Exposed 18 hours
[39] = Sample gg, Test Disc 4, Exposed 18 hours
[40] = Sample hh, Test Disc 4 Replicate, Exposed 18 hours
[41] = Sample ii, Test Disc 5, Exposed 18 hours
[42] = Sample kk, Test Disc 5 Replicate, Exposed 18 hours

SMILES	Active Agent Transferred from Gel to Filters [1, 3] [μg per filter]	Active Agent Transferred from Gel to Filters [1, 4] [μg per filter]	Active Agent Transferred from Gel to Filters [1, 5] [μg per filter]	Active Agent Transferred from Gel to Filters [1, 6] [μg per filter]	Active Agent Transferred from Gel to Filters [1, 7] [μg per filter]	Total Active Agent Exuded from Gel [1, 8] [µg]	Total Active Agent Exuded from Gel [1, 9] [µg]	Total Active Agent Exuded from Gel [1, 10] [µg]	Total Active Agent Exuded from Gel [1, 11] [µg]	Total Active Agent Exuded from Gel [1, 12] [µg]	Active Agent Transferred from Gel to Filters [1, 13] [μg per filter]	Active Agent Transferred from Gel to Filters [1, 14] [μg per filter]	Active Agent Transferred from Gel to Filters [1, 15] [μg per filter]	Active Agent Transferred from Gel to Filters [1, 16] [μg per filter]	Active Agent Transferred from Gel to Filters [1, 17] [μg per filter]	Total Active Agent Exuded from Gel [1, 18] [µg]	Total Active Agent Exuded from Gel [1, 19] [µg]	Total Active Agent Exuded from Gel [1, 20] [µg]	Total Active Agent Exuded from Gel [1, 21] [µg]	Total Active Agent Exuded from Gel [1, 22] [µg]	further results
O=c1c(O)c(-c2ccc(O)c(O)c2)oc2cc(O)cc(O)c12 [Quercetin]	10	11	21	31	15	10	21	42	72	87	12	15	30	21	16	12	27	57	78	94	Quantitative Analysis - Islechem u-gram extraction [1, 23]: 9 u-gram; Quantitative Analysis - Islechem u-gram extraction [1, 24]: 11 u-gram; Quantitative Analysis - Islechem u-gram extraction [1, 25]: 9.4 u-gram; Quantitative Analysis - Islechem u-gram extraction [1, 26]: 13.2 u-gram; Quantitative Analysis - Islechem u-gram extraction [1, 27]: 18.6 u-gram; Quantitative Analysis - Islechem u-gram extraction [1, 28]: 28.6 u-gram; Quantitative Analysis - Islechem u-gram extraction [1, 29]: 27.5 u-gram; Quantitative Analysis - Islechem u-gram extraction [1, 30]: 19 u-gram; Quantitative Analysis - Islechem u-gram extraction [1, 31]: 13.2 u-gram; Quantitative Analysis - Islechem u-gram extraction [1, 32]: 14.2 u-gram; Estimated grams of ingredient exuded (theoretical amount from ratios of ingredients in the gel disc formula) [2, 33]: 0.0009 grams; Estimated grams of ingredient exuded (theoretical amount from ratios of ingredients in the gel disc formula) [2, 34]: 0.0012 grams; Estimated grams of ingredient exuded (theoretical amount from ratios of ingredients in the gel disc formula) [2, 35]: 0.0009 grams; Estimated grams of ingredient exuded (theoretical amount from ratios of ingredients in the gel disc formula) [2, 36]: 0.0014 grams; Estimated grams of ingredient exuded (theoretical amount from ratios of ingredients in the gel disc formula) [2, 37]: 0.0024 grams; Estimated grams of ingredient exuded (theoretical amount from ratios of ingredients in the gel disc formula) [2, 38]: 0.0024 grams; Estimated grams of ingredient exuded (theoretical amount from ratios of ingredients in the gel disc formula) [2, 39]: 0.0025 grams; Estimated grams of ingredient exuded (theoretical amount from ratios of ingredients in the gel disc formula) [2, 40]: 0.0022 grams; Estimated grams of ingredient exuded (theoretical amount from ratios of ingredients in the gel disc formula) [2, 41]: 0.0020 grams; Estimated grams of ingredient exuded (theoretical amount from ratios of ingredients in the gel disc formula) [2, 42]: 0.0020 grams
CCCCCCCCCCCCCCCC(=O)OC/C=C(C)/C=C/C=C(C)/C=C/C1=C(C)CCCC1(C)C [Vit. A Palmitate, reference compound]	841	977	1955	1682	916	841	1818	3773	5455	6370	1159	1284	1864	1307	1523	1159	2443	4307	5614	7136	Quantitative Analysis - Islechem u-gram extraction [1, 23]: 740 u-gram; Quantitative Analysis - Islechem u-gram extraction [1, 24]: 1020 u-gram; Quantitative Analysis - Islechem u-gram extraction [1, 25]: 860 u-gram; Quantitative Analysis - Islechem u-gram extraction [1, 26]: 1130 u-gram; Quantitative Analysis - Islechem u-gram extraction [1, 27]: 1720 u-gram; Quantitative Analysis - Islechem u-gram extraction [1, 28]: 1640 u-gram; Quantitative Analysis - Islechem u-gram extraction [1, 29]: 1480 u-gram; Quantitative Analysis - Islechem u-gram extraction [1, 30]: 1150 u-gram; Quantitative Analysis - Islechem u-gram extraction [1, 31]: 806 u-gram; Quantitative Analysis - Islechem u-gram extraction [1, 32]: 1340 u-gram; Estimated grams of ingredient exuded (theoretical amount from ratios of ingredients in the gel disc formula) [2, 33]: 0.0022 grams; Estimated grams of ingredient exuded (theoretical amount from ratios of ingredients in the gel disc formula) [2, 34]: 0.0031 grams; Estimated grams of ingredient exuded (theoretical amount from ratios of ingredients in the gel disc formula) [2, 35]: 0.0024 grams; Estimated grams of ingredient exuded (theoretical amount from ratios of ingredients in the gel disc formula) [2, 36]: 0.0035 grams; Estimated grams of ingredient exuded (theoretical amount from ratios of ingredients in the gel disc formula) [2, 37]: 0.0062 grams; Estimated grams of ingredient exuded (theoretical amount from ratios of ingredients in the gel disc formula) [2, 38]: 0.0062 grams; Estimated grams of ingredient exuded (theoretical amount from ratios of ingredients in the gel disc formula) [2, 39]: 0.0064 grams; Estimated grams of ingredient exuded (theoretical amount from ratios of ingredients in the gel disc formula) [2, 40]: 0.0057 grams; Estimated grams of ingredient exuded (theoretical amount from ratios of ingredients in the gel disc formula) [2, 41]: 0.0051 grams; Estimated grams of ingredient exuded (theoretical amount from ratios of ingredients in the gel disc formula) [2, 42]: 0.0051 grams
